In patent publication US12662479B2 (Foghorn Therapeutics Inc., priority 2020, dated 2026):

Tests used:
[1] = biological target: T1, HiBit-BRG1 fusion protein (Homo sapiens, UniProt P51532); assay: HiBiT-BRG1 cell-based degradation assay (Nano-Glo HiBiT Lytic Detection, 24 h); details: HeLa cells expressing HiBit-BRG1 and LgBit; for DC50: read-out: BRG1 HiBit Degradation IC50; for Dmax: HeLa, top dose 30 μM, read-out: BRG1 HiBit Degradation Maximum measured
T1 construct: expressed in transfected cells
Summary of the method: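 Stable HeLa line expressing HiBiT-BRG1 and LgBiT, seeded at 5000 cells/well; luminescence read after lytic Nano-Glo HiBiT reagent and 10 min shaking at RT. % degradation normalised between DMSO (high control) and 2 μM reference BRM/BRG1 degrader (low control).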

[2] = biological target: T2, HiBit-BRM fusion protein (Homo sapiens, UniProt P51531); assay: HiBiT-BRM cell-based degradation assay (Nano-Glo HiBiT Lytic Detection, 24 h); details: HeLa cells expressing HiBiT-BRM; for DC50: read-out: BRM HiBit Degradation IC50; for BRM HiBit Degradation Maximum measured: top dose 30 μM
T2 construct: expressed in transfected cells
Summary of the method: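 HeLa cells stably expressing HiBiT-BRM were dosed with compounds (10-point 3-fold dilutions, 30 μM final top dose, duplicate) for 24 h. HiBiT signal was read by lytic LgBiT complementation luminescence. Percent degradation was normalised to DMSO (high control) and 2 μM of a reference BRM/BRG1 degrader (low control).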

T1 sequence (P51532 whole entry, the tested form may be a part): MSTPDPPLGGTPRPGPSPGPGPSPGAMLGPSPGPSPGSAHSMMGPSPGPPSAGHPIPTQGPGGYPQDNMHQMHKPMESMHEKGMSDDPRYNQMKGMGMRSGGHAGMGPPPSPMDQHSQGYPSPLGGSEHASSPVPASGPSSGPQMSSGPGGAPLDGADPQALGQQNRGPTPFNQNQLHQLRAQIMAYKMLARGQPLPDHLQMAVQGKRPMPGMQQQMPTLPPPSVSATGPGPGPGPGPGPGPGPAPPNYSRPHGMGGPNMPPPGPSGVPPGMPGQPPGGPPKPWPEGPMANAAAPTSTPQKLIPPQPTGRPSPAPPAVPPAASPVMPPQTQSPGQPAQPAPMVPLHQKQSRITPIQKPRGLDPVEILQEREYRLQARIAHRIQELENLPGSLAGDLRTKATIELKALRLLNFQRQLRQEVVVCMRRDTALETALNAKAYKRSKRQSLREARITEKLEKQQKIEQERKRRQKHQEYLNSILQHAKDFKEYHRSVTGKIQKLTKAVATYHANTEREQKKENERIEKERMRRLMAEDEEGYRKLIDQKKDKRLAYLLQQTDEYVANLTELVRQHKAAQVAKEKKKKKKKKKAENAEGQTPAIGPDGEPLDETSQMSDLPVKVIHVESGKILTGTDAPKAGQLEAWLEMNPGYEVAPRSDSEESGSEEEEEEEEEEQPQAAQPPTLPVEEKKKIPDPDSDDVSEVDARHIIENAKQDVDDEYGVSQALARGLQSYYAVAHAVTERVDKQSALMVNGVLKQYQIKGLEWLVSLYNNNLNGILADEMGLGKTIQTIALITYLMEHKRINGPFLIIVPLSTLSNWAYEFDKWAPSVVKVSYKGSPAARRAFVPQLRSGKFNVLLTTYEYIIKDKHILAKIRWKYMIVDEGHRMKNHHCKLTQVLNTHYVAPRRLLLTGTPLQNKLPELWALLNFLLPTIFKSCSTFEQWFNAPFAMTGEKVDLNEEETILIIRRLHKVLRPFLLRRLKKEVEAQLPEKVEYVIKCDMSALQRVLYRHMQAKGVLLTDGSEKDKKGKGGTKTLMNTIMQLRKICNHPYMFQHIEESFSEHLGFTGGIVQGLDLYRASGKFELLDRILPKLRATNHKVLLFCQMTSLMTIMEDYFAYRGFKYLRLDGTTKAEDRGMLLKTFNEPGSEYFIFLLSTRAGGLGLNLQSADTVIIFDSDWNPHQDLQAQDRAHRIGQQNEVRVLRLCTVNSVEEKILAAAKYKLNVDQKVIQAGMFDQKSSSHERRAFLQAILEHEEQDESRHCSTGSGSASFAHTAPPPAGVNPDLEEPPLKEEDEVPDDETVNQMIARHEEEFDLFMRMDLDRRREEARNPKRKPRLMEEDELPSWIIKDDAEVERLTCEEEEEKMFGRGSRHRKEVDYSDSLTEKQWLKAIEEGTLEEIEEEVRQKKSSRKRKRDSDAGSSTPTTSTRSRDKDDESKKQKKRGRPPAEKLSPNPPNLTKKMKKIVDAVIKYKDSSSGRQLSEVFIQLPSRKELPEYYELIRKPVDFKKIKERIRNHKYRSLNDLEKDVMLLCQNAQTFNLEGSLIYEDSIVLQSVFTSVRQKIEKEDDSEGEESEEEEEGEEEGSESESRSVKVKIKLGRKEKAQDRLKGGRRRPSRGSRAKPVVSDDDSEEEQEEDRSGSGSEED
T2 sequence (P51531 whole entry, the tested form may be a part): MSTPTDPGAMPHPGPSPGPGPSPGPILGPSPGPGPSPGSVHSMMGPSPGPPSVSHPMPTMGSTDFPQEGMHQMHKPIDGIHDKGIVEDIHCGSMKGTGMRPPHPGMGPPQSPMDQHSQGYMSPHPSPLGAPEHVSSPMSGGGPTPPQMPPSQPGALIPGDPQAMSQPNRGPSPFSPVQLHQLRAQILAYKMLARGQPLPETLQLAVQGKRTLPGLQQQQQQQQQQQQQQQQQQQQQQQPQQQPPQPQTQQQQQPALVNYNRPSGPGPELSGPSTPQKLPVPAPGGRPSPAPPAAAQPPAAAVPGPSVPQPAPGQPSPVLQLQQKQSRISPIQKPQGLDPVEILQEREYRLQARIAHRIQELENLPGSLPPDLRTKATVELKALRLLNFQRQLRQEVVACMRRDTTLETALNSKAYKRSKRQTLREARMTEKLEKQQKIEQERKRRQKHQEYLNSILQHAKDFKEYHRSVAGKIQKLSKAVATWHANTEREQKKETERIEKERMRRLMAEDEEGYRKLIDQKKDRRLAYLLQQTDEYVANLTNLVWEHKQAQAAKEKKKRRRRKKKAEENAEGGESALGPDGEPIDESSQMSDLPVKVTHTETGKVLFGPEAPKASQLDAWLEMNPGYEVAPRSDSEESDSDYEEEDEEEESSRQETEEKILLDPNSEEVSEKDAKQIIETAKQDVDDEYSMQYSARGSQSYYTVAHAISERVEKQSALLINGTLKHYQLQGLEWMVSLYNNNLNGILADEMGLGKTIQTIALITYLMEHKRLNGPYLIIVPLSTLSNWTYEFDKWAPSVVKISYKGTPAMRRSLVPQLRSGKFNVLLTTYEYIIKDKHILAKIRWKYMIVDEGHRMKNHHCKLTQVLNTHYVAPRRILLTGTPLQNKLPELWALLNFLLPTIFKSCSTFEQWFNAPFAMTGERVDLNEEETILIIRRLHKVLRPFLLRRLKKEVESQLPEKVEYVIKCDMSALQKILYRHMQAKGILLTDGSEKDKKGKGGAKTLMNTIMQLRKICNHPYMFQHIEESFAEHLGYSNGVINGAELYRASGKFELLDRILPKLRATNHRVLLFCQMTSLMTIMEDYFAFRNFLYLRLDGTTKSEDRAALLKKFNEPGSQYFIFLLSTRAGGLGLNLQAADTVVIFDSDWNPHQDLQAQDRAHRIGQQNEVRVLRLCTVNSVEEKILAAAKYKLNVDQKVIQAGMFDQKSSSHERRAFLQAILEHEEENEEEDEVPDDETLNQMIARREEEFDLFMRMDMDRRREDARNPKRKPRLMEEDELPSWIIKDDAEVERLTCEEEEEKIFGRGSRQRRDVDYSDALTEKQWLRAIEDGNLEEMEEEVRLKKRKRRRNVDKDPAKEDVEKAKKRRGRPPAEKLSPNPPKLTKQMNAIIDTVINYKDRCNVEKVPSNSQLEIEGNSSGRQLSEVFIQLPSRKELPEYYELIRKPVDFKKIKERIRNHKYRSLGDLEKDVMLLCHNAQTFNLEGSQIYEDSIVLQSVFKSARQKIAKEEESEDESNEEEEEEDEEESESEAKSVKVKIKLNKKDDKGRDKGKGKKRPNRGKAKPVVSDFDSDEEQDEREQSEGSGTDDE

| SMILES | DC50 [1] [µM] | Dmax [1] [%] | DC50 [2] [µM] | BRM HiBit Degradation Maximum measured [2] |
| --- | --- | --- | --- | --- |
| Cc1c(C(=O)NCC(=O)Nc2nc(-c3cccc(-c4ccnc(N(C)CC(=O)NCCOCCOCCNc5cccc6c5C(=O)N(C5CCC(=O)NC5=O)C6=O)c4)c3)cs2)cn(S(=O)(=O)C(C)C)c1C (centres unmarked) [Compound 90, N-[2-[[4-[3-[2-[[2-[2-[2-[2-[[2-(2,6-dioxo-3-piperidyl)-1,3-dioxo-isoindolin-4-yl]amino]ethoxy]ethoxy]ethylamino]-2-oxo-ethyl]-methyl-amino]-4-pyridyl]phenyl]thiazol-2-yl]amino]-2-oxo-ethyl]-1-isopropylsulfonyl-4,5-dimethyl-pyrrole-3-carboxamide] | > 10 | < 50 | > 10 | C (‘C’ = Maximum degradation <50%) |
| CN(CC(=O)N1CCC(C2CCN(C(=O)COc3cccc4c3C(=O)N(C3CCC(=O)NC3=O)C4=O)CC2)CC1)c1cc(-c2cccc(-c3csc(NC(=O)CNC(=O)c4ccn(S(C)(=O)=O)c4)n3)c2)ccn1 (centres unmarked) [Compound 17, N-(2-((4-(3-(2-((2-(1′-(2-((2-(2,6-dioxopiperidin-3-yl)-1,3-dioxoisoindolin-4-yl)oxy)acetyl)-[4,4′-bipiperidin]-1-yl)-2-oxoethyl)(methyl)amino)pyridin-4-yl)phenyl)thiazol-2-yl)amino)-2-oxoethyl)-1-(methylsulfonyl)-1H-pyrrole-3-carboxamide] | > 10 | < 50 | > 10 | C (‘C’ = Maximum degradation <50%) |
| CN(CCNC(=O)CCCOCC[C@H](NC(=O)c1ccn(S(C)(=O)=O)c1)C(=O)Nc1nc(-c2ccccc2)cs1)CCNC(=O)COc1cccc2c1C(=O)N(C1CCC(=O)NC1=O)C2=O.O=CO (stereo partly drawn) [Compound 252, (2S)-4-[3-[(2-[[2-(2-[[2-(2,6-dioxopiperidin-3-yl)-1,3-dioxoisoindol-4-yl]oxy]acetamido)ethyl](methyl)amino]ethyl)carbamoyl]propoxy]-2-[(1-methanesulfonylpyrrol-3-yl)formamido]-N-(4-phenyl-1,3-thiazol-2-yl)butanamide; formic acid] | > 10 | < 50 | > 10 | C (‘C’ = Maximum degradation <50%) |
| Cc1c(C(=O)NCC(=O)Nc2nc(-c3cccc(-c4ccnc(N(C)CC(=O)NCCCCCNc5cccc6c5C(=O)N(C5CCC(=O)NC5=O)C6=O)c4)c3)cs2)cn(S(=O)(=O)C(C)C)c1C (centres unmarked) [Compound 91, N-[2-[[4-[3-[2-[[2-[5-[[2-(2,6-dioxo-3-piperidyl)-1,3-dioxo-isoindolin-4-yl]amino]pentylamino]-2-oxo-ethyl]-methyl-amino]-4-pyridyl]phenyl]thiazol-2-yl]amino]-2-oxo-ethyl]-1-isopropylsulfonyl-4,5-dimethyl-pyrrole-3-carboxamide] | > 10 | < 50 | > 10 | C (‘C’ = Maximum degradation <50%) |
| Cc1ncsc1-c1ccc(CNC(=O)[C@@H]2C[C@@H](O)CN2C(=O)[C@@H](NC(=O)CCCCCCCCC(=O)NCc2ccc(COC[C@H](NC(=O)c3ccn(S(C)(=O)=O)c3)C(=O)Nc3nc(-c4ccccc4)cs3)cc2)C(C)(C)C)cc1 [Compound 177, N-[(2S)-1-[(2S,4R)-4-hydroxy-2-([[4-(4-methyl-1,3-thiazol-5-yl)phenyl]methyl]carbamoyl)pyrrolidin-1-yl]-3,3-dimethyl-1-oxobutan-2-yl]-N′-[(4-[[(2S)-2-[(1-methanesulfonylpyrrol-3-yl)formamido]-2-[(4-phenyl-1,3-thiazol-2-yl)carbamoyl]ethoxy]methyl]phenyl)methyl]decanediamide] | 0.1 to 1 | 50 to 75 | > 10 | C (‘C’ = Maximum degradation <50%) |
| CS(=O)(=O)n1ccc(C(=O)N[C@@H](CCOCCCC(=O)N2CC(CN3CCN(c4ccc5c(c4)C(=O)N(C4CCC(=O)NC4=O)C5=O)CC3)C2)C(=O)Nc2nc(-c3ccccc3)cs2)c1 (stereo partly drawn) [Compound 221, (2S)-4-[4-[3-([4-[2-(2,6-dioxopiperidin-3-yl)-1,3-dioxoisoindol-5-yl]piperazin-1-yl]methyl)azetidin-1-yl]-4-oxobutoxy]-2-[(1-methanesulfonylpyrrol-3-yl)formamido]-N-(4-phenyl-1,3-thiazol-2-yl)butanamide] | > 10 | < 50 | > 10 | C (‘C’ = Maximum degradation <50%) |
| CS(=O)(=O)n1ccc(C(=O)N[C@@H](CCOCCCC(=O)N2CCN(CCCOc3ccc4c(c3)C(=O)N(C3CCC(=O)NC3=O)C4=O)CC2)C(=O)Nc2nc(-c3ccccc3)cs2)c1 (stereo partly drawn) [Compound 255, (2S)-4-[4-[4-(3-[[2-(2,6-dioxopiperidin-3-yl)-1,3-dioxoisoindol-5-yl]oxy]propyl)piperazin-1-yl]-4-oxobutoxy]-2-[(1-methanesulfonylpyrrol-3-yl)formamido]-N-(4-phenyl-1,3-thiazol-2-yl)butanamide] | > 10 | < 50 | > 10 | C (‘C’ = Maximum degradation <50%) |
| Cc1ncsc1-c1ccc(CNC(=O)[C@@H]2C[C@@H](O)CN2C(=O)[C@@H](NC(=O)CCCCCCCCCCCCCCCC(=O)NCc2cccc(-c3cccc(-c4csc(NC(=O)CNC(=O)c5ccn(S(C)(=O)=O)c5)n4)c3)c2)C(C)(C)C)cc1 [Compound 124, N1-((S)-1-((2S,4R)-4-hydroxy-2-((4-(4-methylthiazol-5-yl)benzyl)carbamoyl)pyrrolidin-1-yl)-3,3-dimethyl-1-oxobutan-2-yl)-N17-((3′-(2-(2-(1-(methylsulfonyl)-1H-pyrrole-3-carboxamido)acetamido)thiazol-4-yl)-[1,1′-biphenyl]-3-yl)methyl)heptadecanediamide] | > 10 | < 50 | > 10 | C (‘C’ = Maximum degradation <50%) |
| CS(=O)(=O)n1ccc(C(=O)NCC(=O)Nc2nc(-c3cccc(-c4ccnc(OCCNC(=O)C5CC5CNC(=O)COc5cccc6c5C(=O)N(C5CCC(=O)NC5=O)C6=O)c4)c3)cs2)c1 (centres unmarked) [Compound 37, N-[2-[[4-[3-[2-[2-[[2-[[[2-[2-(2,6-dioxo-3-piperidyl)-1,3-dioxoisoindolin-4-yl]oxyacetyl]amino]methyl]cyclopropanecarbonyl]amino]ethoxy]-4-pyridyl]phenyl]thiazol-2-yl]amino]-2-oxoethyl]-1-methylsulfonyl-pyrrole-3-carboxamide] | > 10 | < 50 | > 10 | C (‘C’ = Maximum degradation <50%) |
| CS(=O)(=O)n1ccc(C(=O)N[C@@H](COCc2ccc(C(=O)NCCCC#Cc3cccc4c3C(=O)N(C3CCC(=O)NC3=O)C4=O)cc2)C(=O)Nc2nc(-c3ccccc3)cs2)c1 (stereo partly drawn) [Compound 205, N-[5-[2-(2,6-dioxopiperidin-3-yl)-1,3-dioxoisoindol-4-yl]pent-4-yn-1-yl]-4-[[(2S)-2-[(1-methanesulfonylpyrrol-3-yl)formamido]-2-[(4-phenyl-1,3-thiazol-2-yl)carbamoyl]ethoxy]methyl]benzamide] | > 10 | < 50 | > 10 | C (‘C’ = Maximum degradation <50%) |
| CS(=O)(=O)n1ccc(C(=O)NCC(=O)Nc2nc(C3CCCN(C(=O)CCOCCOCCOc4ccc5c(c4)C(=O)N(C4CCC(=O)NC4=O)C5=O)C3)cs2)c1 (centres unmarked) [Compound 144, N-[4-(1-{3-[2-(2-{[2-(2,6-dioxopiperidin-3-yl)-1,3-dioxo-2,3-dihydro-1H-isoindol-5-yl]oxy}ethoxy)ethoxy]propanoyl}piperidin-3-yl)-1,3-thiazol-2-yl]-2-[(1-methanesulfonyl-1H-pyrrol-3-yl)formamido]acetamide] | > 10 | < 50 | > 10 | C (‘C’ = Maximum degradation <50%) |
| CS(=O)(=O)n1ccc(C(=O)N[C@@H](CCCCNC(=O)CCOCCOCCNc2ccc3c(c2)C(=O)N(C2CCC(=O)NC2=O)C3=O)C(=O)Nc2nc(-c3ccccc3)cs2)c1 (stereo partly drawn) [Compound 292, (2S)-6-[3-[2-(2-[[2-(2,6-dioxopiperidin-3-yl)-1,3-dioxoisoindol-5-yl]amino]ethoxy)ethoxy]propanamido]-2-[(1-methanesulfonylpyrrol-3-yl)formamido]-N-(4-phenyl-1,3-thiazol-2-yl)hexanamide] | > 10 | < 50 | > 10 | C (‘C’ = Maximum degradation <50%) |
| CS(=O)(=O)n1ccc(C(=O)N[C@@H](CCOCCCC(=O)NCCCCNc2ccc3c(c2)C(=O)N(C2CCC(=O)NC2=O)C3=O)C(=O)Nc2nc(-c3ccccc3)cs2)c1 (stereo partly drawn) [Compound 282, (2S)-4-[3-[(4-[[2-(2,6-dioxopiperidin-3-yl)-1,3-dioxoisoindol-5-yl]amino]butyl)carbamoyl]propoxy]-2-[(1-methanesulfonylpyrrol-3-yl)formamido]-N-(4-phenyl-1,3-thiazol-2-yl)butanamide] | > 10 | < 50 | > 10 | C (‘C’ = Maximum degradation <50%) |
| CS(=O)(=O)n1ccc(C(=O)N[C@@H](CCCCNC(=O)CCCCCCCCCCNc2cccc3c2C(=O)N(C2CCC(=O)NC2=O)C3=O)C(=O)Nc2nc(-c3ccccc3)cs2)c1 (stereo partly drawn) [Compound 296, 11-[[2-(2,6-dioxopiperidin-3-yl)-1,3-dioxoisoindol-4-yl]amino]-N-[(5S)-5-[(1-methanesulfonylpyrrol-3-yl)formamido]-5-[(4-phenyl-1,3-thiazol-2-yl)carbamoyl]pentyl]undecanamide] | > 10 | < 50 | > 10 | C (‘C’ = Maximum degradation <50%) |
